Where “and” joins values, the source holds several entries; their conditions need not be identical. Equal values may be shown once. Toxic doses and inconclusive results are not listed. No stated cut-off is given here; in the data, active means T/C of 150% or more; inactive means T/C below 125%.
System: L1210 leukemia ip in BDF1 mice, survival T/C
Test: NCI In Vivo Anticancer Drug Screen. Data for tumor model L1210 Leukemia (intraperitoneal) in B6D2F1 (BDF1) mice
Conditions: endpoint: mean survival time, higher = longer survival
Outline: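 Read-out is survival time, reported as the treated-group measurement over the vehicle-control measurement.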

[1] = dose: 100.0 mg/kg/injection, schedule: Q01DX009 (ip), vehicle: other
[2] = dose: 200.0 mg/kg/injection, schedule: Q01DX009 (ip), vehicle: other
[3] = dose: 400.0 mg/kg/injection, schedule: Q01DX009 (ip), vehicle: other
[4] = dose: 50.0 mg/kg/injection, schedule: Q01DX009 (ip), vehicle: saline with Tween-80
[5] = dose: 100.0 mg/kg/injection, schedule: Q01DX001 (ip), vehicle: saline
[6] = dose: 100.0 mg/kg/injection, schedule: Q01DX009 (ip), vehicle: saline with Tween-80
[7] = dose: 200.0 mg/kg/injection, schedule: Q01DX001 (ip), vehicle: saline
[8] = dose: 400.0 mg/kg/injection, schedule: Q01DX001 (ip), vehicle: saline
[9] = dose: 100.0 mg/kg/injection, schedule: Q04DX003 (ip), vehicle: saline with Tween-80
[10] = dose: 200.0 mg/kg/injection, schedule: Q04DX003 (ip), vehicle: saline with Tween-80
[11] = dose: 400.0 mg/kg/injection, schedule: Q04DX003 (ip), vehicle: saline with Tween-80
[12] = dose: 100.0 mg/kg/injection, schedule: Q04DX002 (ip), vehicle: Klucel (hydroxypropylcellulose) (HPC)
[13] = dose: 200.0 mg/kg/injection, schedule: Q04DX002 (ip), vehicle: Klucel (hydroxypropylcellulose) (HPC)
[14] = dose: 100.0 mg/kg/injection, schedule: Q04DX003 (ip), vehicle: Klucel (hydroxypropylcellulose) (HPC)
[15] = dose: 200.0 mg/kg/injection, schedule: Q04DX003 (ip), vehicle: Klucel (hydroxypropylcellulose) (HPC)

Measured: T/C

CCCCCCCCCCCCCCCCCCNC(=O)Nc1cc(C(C)C)ccc1C
inactive: [1] 86 % of control | [2] 88 % of control | [3] 99 % of control and 100 % of control

CC(CCF)C(N)C(=O)O (stereo unspecified)
inactive: dose: 3.0 mg/kg/injection, schedule: Q01DX009 (ip), vehicle: saline 98 % of control | dose: 6.0 mg/kg/injection, schedule: Q01DX009 (ip), vehicle: saline 100 % of control | dose: 10.0 mg/kg/injection, schedule: Q01DX001 (ip), vehicle: saline 91 % of control | dose: 12.0 mg/kg/injection, schedule: Q01DX009 (ip), vehicle: saline 102 % of control | dose: 12.5 mg/kg/injection, schedule: Q01DX009 (ip), vehicle: saline 100 % of control | dose: 19.0 mg/kg/injection, schedule: Q01DX001 (ip), vehicle: saline 95 % of control | dose: 37.5 mg/kg/injection, schedule: Q01DX001 (ip), vehicle: saline 113 % of control | dose: 38.0 mg/kg/injection, schedule: Q01DX001 (ip), vehicle: saline 91 % of control

C(=C\c1ccc2ccccc2n1)/c1ccccc1
inactive: [4] 119 % of control | [5] 103 % of control | [6] 94 % of control | [7] 106 % of control | dose: 200.0 mg/kg/injection, schedule: Q01DX009 (ip), vehicle: saline with Tween-80 109 % of control | [8] 109 % of control

c1ccc(C(=NC(c2ccccc2)c2ccccc2)c2ccccc2)cc1
inactive: dose: 50.0 mg/kg/injection, schedule: Q01DX001 (ip), vehicle: saline 98 % of control | [5] 98 % of control | [7] 96 % of control | [8] 98 % of control

C=C1C(=O)O[C@H]2C[C@@H](C)[C@@H]3CC(=O)OC[C@@]3(C)CC12 (stereo partly specified)
inactive: dose: 25.0 mg/kg/injection, schedule: Q01DX009 (ip), vehicle: saline with Tween-80 108 % of control | dose: 25.0 mg/kg/injection, schedule: Q04DX003 (ip), vehicle: saline with Tween-80 99 % of control | [4] 105 % of control | dose: 50.0 mg/kg/injection, schedule: Q04DX003 (ip), vehicle: saline with Tween-80 105 % of control | [6] 101 % of control | [9] 93 % of control and 103 % of control

CC(=O)C(/C=N/C(=O)N(C)C)=C(/C)O
inactive: [9] 98 % of control | [10] 104 % of control | [11] 104 % of control

O=C(Nc1ncc([N+](=O)[O-])s1)c1ccc([N+](=O)[O-])cc1Cl
inactive: dose: 5.0 mg/kg/injection, schedule: Q01DX009 (ip), vehicle: Klucel (hydroxypropylcellulose) (HPC) 94 % of control | dose: 5.0 mg/kg/injection, schedule: Q04DX003 (ip), vehicle: Klucel (hydroxypropylcellulose) (HPC) 100 % of control | dose: 10.0 mg/kg/injection, schedule: Q01DX009 (ip), vehicle: Klucel (hydroxypropylcellulose) (HPC) 92 % of control | dose: 10.0 mg/kg/injection, schedule: Q04DX003 (ip), vehicle: Klucel (hydroxypropylcellulose) (HPC) 95 % of control | dose: 20.0 mg/kg/injection, schedule: Q01DX009 (ip), vehicle: Klucel (hydroxypropylcellulose) (HPC) 99 % of control | dose: 20.0 mg/kg/injection, schedule: Q04DX003 (ip), vehicle: Klucel (hydroxypropylcellulose) (HPC) 94 % of control

CC1C(=O)C=C2CCCC(C)(C)C2(C)C1(O)CCc1ccoc1 (stereo unspecified)
inactive: [5] 103 % of control | [7] 97 % of control | [8] 107 % of control

COC(=O)C1CCC(N)CC1 (stereo unspecified)
inactive: [5] 106 % of control and 105 % of control | [7] 104 % of control and 94 % of control | [8] 108 % of control and 96 % of control

NNC(=O)CNc1ccc(F)cc1Cl
inactive: [12] 101 % of control | [13] 105 % of control

Oc1ccc(C(c2ccc(O)c(Br)c2)c2ccccn2)cc1Br
inactive: [14] 100 % of control | [15] 98 % of control | dose: 400.0 mg/kg/injection, schedule: Q04DX003 (ip), vehicle: Klucel (hydroxypropylcellulose) (HPC) 96 % of control

CCOC(=O)C(NNc1ccccc1)C(c1ccccc1)[P+](c1ccccc1)(c1ccccc1)c1ccccc1 (stereo unspecified)
inactive: dose: 75.0 mg/kg/injection, schedule: Q01DX001 (ip), vehicle: carboxymethylcellulose (CMC) 101 % of control

O=C(CCl)N1CC2CCC(CC2)C1
inactive: [14] 97 % of control

COc1ccc(C(O)(c2ccc(OC)cc2)c2ccccn2)cc1
inactive: [9] 95 % of control | [10] 102 % of control | [11] 91 % of control

NCCSC(O)(C(F)(F)F)C(F)(F)F
inactive: dose: 37.5 mg/kg/injection, schedule: Q04DX003 (ip), vehicle: saline 103 % of control | dose: 75.0 mg/kg/injection, schedule: Q01DX001 (ip), vehicle: saline 113 % of control and 101 % of control | dose: 75.0 mg/kg/injection, schedule: Q04DX003 (ip), vehicle: saline 102 % of control and 103 % of control | dose: 150.0 mg/kg/injection, schedule: Q01DX001 (ip), vehicle: saline 106 % of control and 109 % of control | dose: 150.0 mg/kg/injection, schedule: Q04DX003 (ip), vehicle: saline 104 % of control and 100 % of control

CN(C)c1ccc(/C=N/Nc2c([N+](=O)[O-])cc(C(F)(F)F)cc2[N+](=O)[O-])cc1
inactive: dose: 100.0 mg/kg/injection, schedule: Q01DX009 (ip), vehicle: gum acacia 90 % of control | dose: 200.0 mg/kg/injection, schedule: Q01DX009 (ip), vehicle: gum acacia 88 % of control | dose: 400.0 mg/kg/injection, schedule: Q01DX009 (ip), vehicle: gum acacia 88 % of control

CCC1CCCCN1CCNc1ccc(CO)c2sc3ccccc3c(=O)c12 (stereo unspecified)
inactive: dose: 50.0 mg/kg/injection, schedule: Q01DX009 (ip), vehicle: Klucel (hydroxypropylcellulose) (HPC) 101 % of control | dose: 100.0 mg/kg/injection, schedule: Q01DX009 (ip), vehicle: Klucel (hydroxypropylcellulose) (HPC) 115 % of control | dose: 200.0 mg/kg/injection, schedule: Q01DX009 (ip), vehicle: Klucel (hydroxypropylcellulose) (HPC) 120 % of control

Cc1noc(/N=C/c2ccccc2)c1C
inactive: [1] 95 % of control | dose: 100.0 mg/kg/injection, schedule: Q04DX003 (ip), vehicle: saline 103 % of control | [2] 102 % of control | dose: 200.0 mg/kg/injection, schedule: Q04DX003 (ip), vehicle: saline 103 % of control | [3] 107 % of control | dose: 400.0 mg/kg/injection, schedule: Q04DX003 (ip), vehicle: saline 96 % of control

COC(=O)Cc1cccc(=O)c(O)c1C(=O)OC
inactive: dose: 50.0 mg/kg/injection, schedule: Q01DX001 (ip), vehicle: carboxymethylcellulose (CMC) 102 % of control | dose: 100.0 mg/kg/injection, schedule: Q01DX001 (ip), vehicle: carboxymethylcellulose (CMC) 102 % of control | dose: 200.0 mg/kg/injection, schedule: Q01DX001 (ip), vehicle: carboxymethylcellulose (CMC) 104 % of control | dose: 400.0 mg/kg/injection, schedule: Q01DX001 (ip), vehicle: carboxymethylcellulose (CMC) 102 % of control

COC1CCCCC1SCSC1CCCCC1OC (stereo unspecified)
inactive: [6] 90 % of control | dose: 400.0 mg/kg/injection, schedule: Q01DX009 (ip), vehicle: saline with Tween-80 88 % of control

CN=C1CC2CCC(C2)C1(O)c1ccccc1 (stereo unspecified)
inactive: [5] 101 % of control

O=C(NNC1CCCCC1)c1ccccc1
inactive: dose: 100.0 mg/kg/injection, schedule: Q04DX003 (ip), vehicle: acetone 107 % of control | dose: 200.0 mg/kg/injection, schedule: Q04DX003 (ip), vehicle: acetone 109 % of control | dose: 400.0 mg/kg/injection, schedule: Q04DX003 (ip), vehicle: acetone 86 % of control

O=C(CCC(=O)OCCBr)OCCBr
inactive: [14] 110 % of control | [15] 102 % of control

C=C1C2CCC3C4(C)CC(OC5OC(CO)C(OS(=O)(=O)O)C(OS(=O)(=O)O)C5OC(=O)CCCC)CC(C(=O)O)(C(=O)O)C4CCC3(C2)C1O (stereo unspecified)
inactive: dose: 3.12 mg/kg/injection, schedule: Q04DX002 (ip), vehicle: saline 103 % of control | dose: 6.25 mg/kg/injection, schedule: Q04DX002 (ip), vehicle: saline 95 % of control

CCCC(O)(CC)CCC
inactive: [9] 100 % of control | [10] 100 % of control

O=C(NNc1ccccc1)C(O)C(O)C(O)C(O)C(O)CO (stereo unspecified)
inactive: [12] 98 % of control | [13] 95 % of control | dose: 400.0 mg/kg/injection, schedule: Q04DX002 (ip), vehicle: Klucel (hydroxypropylcellulose) (HPC) 91 % of control

CCOC(=O)c1cnc(SC)nc1Nc1ccc(C)cc1
inactive: [9] 97 % of control | [10] 91 % of control | [11] 86 % of control

— PubChem BioAssay AID248 (DTP/NCI, 2004)
